Laboratory results from ChEMBL document CHEMBL3352201, “P21-Activated Kinase 4 (PAK4) Inhibitors as Potential Cancer Therapy” (ACS Med Chem Lett, 2015).

Columns and labels:
[1] = target: Serine/threonine-protein kinase PAK 4 (Homo sapiens, UniProt O96013); experiment: Inhibition of human recombinant PAK4 kinase domain assessed as phosphorylation of FRET peptide substrate at Ser/Thr20 by […] assay
[2] = target: Serine/threonine-protein kinase PAK 1 (Homo sapiens, UniProt Q13153); experiment: Inhibition of human recombinant PAK1 kinase domain assessed as phosphorylation of FRET peptide substrate at Ser/Thr20 by […] assay
Sequence of Serine/threonine-protein kinase PAK 1 (Q13153 whole entry, the tested form may be a part): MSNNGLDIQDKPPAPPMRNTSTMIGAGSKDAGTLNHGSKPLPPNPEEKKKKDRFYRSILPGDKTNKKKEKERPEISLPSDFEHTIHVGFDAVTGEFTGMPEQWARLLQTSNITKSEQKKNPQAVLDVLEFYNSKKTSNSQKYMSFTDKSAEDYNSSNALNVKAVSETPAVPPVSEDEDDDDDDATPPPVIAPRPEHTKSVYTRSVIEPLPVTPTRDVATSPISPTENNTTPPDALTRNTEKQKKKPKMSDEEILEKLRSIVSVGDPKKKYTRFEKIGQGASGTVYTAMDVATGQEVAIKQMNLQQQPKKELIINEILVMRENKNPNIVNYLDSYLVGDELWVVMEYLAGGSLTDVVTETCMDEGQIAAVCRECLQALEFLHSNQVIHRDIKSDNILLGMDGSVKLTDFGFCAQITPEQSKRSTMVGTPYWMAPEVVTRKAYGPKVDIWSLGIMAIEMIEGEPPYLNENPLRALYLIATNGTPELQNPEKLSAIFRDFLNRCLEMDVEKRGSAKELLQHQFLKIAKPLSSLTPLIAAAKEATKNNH

Sequence of Serine/threonine-protein kinase PAK 4 (O96013 whole entry, the tested form may be a part): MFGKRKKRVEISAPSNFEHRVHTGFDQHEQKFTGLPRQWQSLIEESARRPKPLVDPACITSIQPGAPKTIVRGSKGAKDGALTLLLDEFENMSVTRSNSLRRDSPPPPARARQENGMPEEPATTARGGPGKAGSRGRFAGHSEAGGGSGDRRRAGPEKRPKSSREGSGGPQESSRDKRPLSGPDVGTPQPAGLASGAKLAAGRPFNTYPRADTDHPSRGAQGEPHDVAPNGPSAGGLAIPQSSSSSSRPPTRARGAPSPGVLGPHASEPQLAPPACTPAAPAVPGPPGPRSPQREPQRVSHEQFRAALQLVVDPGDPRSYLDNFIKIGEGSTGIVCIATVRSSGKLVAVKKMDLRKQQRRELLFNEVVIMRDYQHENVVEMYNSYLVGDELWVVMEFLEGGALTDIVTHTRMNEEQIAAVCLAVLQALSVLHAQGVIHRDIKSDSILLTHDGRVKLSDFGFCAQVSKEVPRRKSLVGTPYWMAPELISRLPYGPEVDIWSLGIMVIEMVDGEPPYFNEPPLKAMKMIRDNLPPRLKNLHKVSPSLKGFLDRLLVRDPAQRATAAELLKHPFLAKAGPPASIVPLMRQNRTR

IC50 [1] | IC50 [2] | Structure (SMILES)
35.5 nM | > 4500 nM | CNc1nc2ccc(C#C[C@@](C)(O)c3cc(C)on3)cc2n1-c1ncnc(N)n1
5.3 nM | > 4500 nM | CCNc1nc2ccc(C#C[C@@](C)(O)c3cc(C)on3)cc2n1-c1ncnc(N)n1
65.5 nM | 9600 nM | CCNc1nc2ccc(C#CC(C)(C)O)cc2n1-c1ncnc(N)n1
4.77 nM | – | COCCNc1nc2ccc(C#CC3(O)CCCCC3)cc2n1-c1ccnc(N)n1
